# According to patent US20100184113A1, “CONTROLLING OSTEOGENESIS BY INHIBITION OF OSTEOGENIC SUPPRESSORS” (The Scripps Research Institute Office of Patent Counsel, priority 2006, published 2010):
# Legend:
# Format in all cases: cell-based, human
# CREB = assay: Western blot of active (phosphorylated) CREB; details: 3 days after transfection, vs siCon treated or untreated
# Experimental: Cell lyses buffer contains 20 mM Tris pH8.0, 1 mM EDTA, 150 mM NaCl and 0.5% NP-40, and before usage, protease inhibitor cocktail (Cat# p8340, Sigma, 1:100 dilution) and phosphatase inhibitor cocktail 2 (Cat# p5726, sigma, 1:100 dilution) were added. Proteins (60 μg/well) were separated in 12% Novex Tris-Glycine gel (Cat# EC6008 box, Invitrogen) and transferred to Nitrocellulose membrane (Cat# LC2001, Invitrogen) using the XCell II blot module system (Cat# E19051, Invitrogen). The membrane was blocked in 5% milk/PBST for 1 hour at room temperature, incubated over night at 4 degree with primary antibody, washed 3 times with PBST (0.05% Tween 20 in PBS), followed by one hour incubation with secondary antibody in 5% milk/PBST and 3 times wash with PBST at room temperature. For antibody against pCREB however, PBST was substituted with PBS in all steps except for the last one. Antibody-bound proteins were detected utilizing ECL Western blotting detection reagent (Amersham Biosciences).
# Anti-phospho-CREB was purchased from Upstate Biotechnology (cat# 06-519); Anti-phospho-p38 was purchased from Cell signaling technology (cat# 9910).
# To find out whether CREB (cAMP Responding Element Binding protein), a common downstream effector of cAMP signaling pathway, is involved in mediating cAMP signaling controlled differentiation of hMSCs, we checked the expression level of the active form of CREB proteins in cells 3 days after siP2RY11, siADK, siGNAS, siSLC12a2 or siCon transfection. […] To further examine the role of CREB in osteogenesis and adipogenesis, a synthetic 24-mer CRE decoy oligonucleotide that can compete with endogenous CRE enhancers for binding proteins was transfected into hMSCs (Park, Y. G. et al., J Biol Chem 274:1573-1580 (1999)), which were then subjected to the treatment of osteogenic or adipogenic induction media.
# hMSCs [1] = assay: Alizarin red staining for calcium phosphate deposits (ECM mineralization, bone cell maturation); details: for intensity of alizarin red staining: OS treatment started three days after siRNA transfection and continued for 9 days (3+9OS), vs siCon
# hMSCs [2] = assay: Adipogenic differentiation of hMSCs, Oil Red O staining; details: for cell fate commitment osteogenic vs adipogenic: compound combined with the OS media; for adipogenic differentiation of hMSCs, cAMP-raising compounds: compound treatment, especially in the presence of dexamethasone (FIG. 7b); for differentiation of hMSCs into mature adipocytes: cAMP analog combined with dexamethasone
# Experimental: Cells were rinsed with PBS twice, fixed in 10% formalin solution for 20 minutes, rinsed with PBS twice and dH2O once, washed with propylene glycol for 5 minutes, and stained with Oil red in propylene glycol (12722A, Newcomer Supply) for 30 minutes. Cells were then washed with 85% propylene glycol for 5 minutes, rinsed with dH2O 3 times and preserved in 50% glycerol.
# (§1) 8-CPT-cAMP, Na (cat# 116812), 5-Iodotubercidin (cat# 407900), Prostaglandin E2 (PGE2, cat# 538904), SB 202190 (cat# 559388) and U0126 (cat# 662005) were purchased from Calbiochem; N6,2′-O-Dibutyryl-cAMP (cat# D0260-5MG), forskolin (cat# F6886), ascorbic acid 2-phosphate (cat# 49752-10G), (3-glycerophosphate (G-6251), dexamethasone (D8893), 3-isobutyl-1-methylxanthine (IBMX, 15879) and Insulin (19278) were purchased from Sigma/Aldrich/Fluka.
# Bone cell maturation is accompanied by extracellular matrix (ECM) mineralization (John Bilezikian et al., Principles of bone biology, Vol 1, 2nd edn: Academic Press) (2002)). To examine whether the osteogenic differentiation of hMSCs induced by the hit siRNAs can further proceed to the maturation stage, hit siRNA treated cells were cultured for 20 days. […] These observations are consistent with the conclusion that the targeted genes of the ten effective hit siRNAs not only play inhibitory roles in osteogenic specification of hMSCs, but also in bone cell maturation. […] Furthermore, in osteoporotic patients, the number of adipocytes was increased in the marrow, implying a change of cell fate disposition from osteoblast lineage to adipocyte lineage (Justesen, J. et al., Biogerontology 2:165-171 (2001); Meunier, P. et al., Clin Orthop Relat Res 80:147-154 (1971)). We therefore examined the effect of our hit siRNAs on adipogenic differentiation of hMSCs by combined treatment with an adipogenic inducing cocktail (100 μg/ml BMX, 1 μM DEX and 10 μg/ml insulin).
# (§2) Since the targeted genes are all positively involved in intracellular cAMP signaling, we tested the effect of two compounds of opposing function on cAMP production on osteogenic differentiation of hMSCs, ADK inhibitor 5-iodotubercidin and ADCY activator forskolin (Cottam, H. B. et al., J Med Chem 36:3424-3430 (1993); de Souza, N. J. et al., Med Res Rev 3:201-219 (1983)). […] ATP has been shown as a ligand for P2RY11 receptor (Communi et al., 1997). […] The present observations are consistent with the conclusion that […] in hMSCs, and vice versa.
# hMSCs [3] = assay: Compound treatment on OS-induced osteogenic differentiation of hMSCs (ALP / alizarin red staining); details: for osteogenic differentiation of hMSCs combined with OS treatment: compound plus OS media
# Experimental: as §1, §2
molecule,measurement,setting,value
"siADK: siRNA GCCACACAAAGCAGCAACA targeting adenosine kinase (listed as RNA, chemistry not given here)",level of pCREB protein,CREB,increased
same,intensity of alizarin red staining,hMSCs [1],dramatically enhanced
same,"intensity of alizarin red staining, sequential treatment","hMSCs [1]; siRNA (initial 2-4 days) followed by OS media, vs control treatment (FIG. 4)",clearly enhanced the intensity of alizarin red staining
"siADCY8: siRNA GGAGAUCAACAAGCAUUCA targeting adenylate cyclase 8 (listed as RNA, chemistry not given here)",intensity of alizarin red staining,hMSCs [1],weak enhancement
"siP2RY11: siRNA UGCGGGUGCUCAACGUGGA targeting purinergic receptor P2Y, G-protein coupled, 11 (listed as RNA, chemistry not given here)",level of pCREB protein,CREB,increased
same,intensity of alizarin red staining,hMSCs [1],dramatically enhanced
Nc1ncnc2c1c(I)cn2[C@@H]1O[C@H](CO)[C@@H](O)[C@H]1O [5-iodotubercidin],adipogenic differentiation of hMSCs under compound,"hMSCs [2]; compound plus adipogenic inducing media, oil red o staining (FIG. 7a j-l)",inhibited the adipogenic differentiation of hMSCs in a dose dependent manner
same,osteogenic differentiation of hMSCs combined with OS treatment,hMSCs [3],significantly enhanced the osteogenic differentiation of hMSCs
"siGNAS: siRNA UCGAAGAUUGAGGACUACU targeting GNAS complex locus (listed as RNA, chemistry not given here)",level of pCREB protein,CREB,increased
same,intensity of alizarin red staining,hMSCs [1],dramatically enhanced
"CC(C)Cn1c(=O)n(C)c(=O)c2[nH]cnc21 [IBMX, 3-isobutyl-1-methylxanthine]",cell fate commitment osteogenic vs adipogenic,hMSCs [2],could switch cell fate determination from osteogenic to adipogenic differentiation
same,"adipogenic differentiation of hMSCs, cAMP-raising compounds",hMSCs [2],promoted hMSCs to undergo adipogenic differentiation
Nc1ncnc2c1nc(Sc1ccc(Cl)cc1)n2[C@@H]1O[C@@H]2COP(=O)(O)O[C@H]2[C@H]1O [8-CPT-cAMP],differentiation of hMSCs into mature adipocytes,hMSCs [2],sufficient to differentiate hMSCs into mature adipocytes
same,cell fate commitment osteogenic vs adipogenic,hMSCs [2],could switch cell fate commitment from osteogenic to adipogenic
same,"adipogenic differentiation of hMSCs, cAMP-raising compounds",hMSCs [2],promoted hMSCs to undergo adipogenic differentiation
"siBIRC4: siRNA UGUGCUACACAGUCAUUAC targeting baculoviral IAP repeat-containing 4 (listed as RNA, chemistry not given here)",intensity of alizarin red staining,hMSCs [1],weak enhancement
"siSLC12a2: siRNA CCUCUUCGUGGCUACAUCU targeting solute carrier family 12, member 2 (listed as RNA, chemistry not given here)",level of pCREB protein,CREB,increased
same,intensity of alizarin red staining,hMSCs [1],dramatically enhanced
"CCCCC[C@H](O)/C=C/[C@H]1[C@H](O)CC(=O)[C@@H]1C/C=C\CCCC(=O)O [PGE2, Prostaglandin E2]",cell fate commitment osteogenic vs adipogenic,hMSCs [2],could switch cell fate determination from osteogenic to adipogenic differentiation
"siBCL212: siRNA CCCAGGUCUCCGAUGAACU targeting BCL2-like 2 (listed as RNA, chemistry not given here)",intensity of alizarin red staining,hMSCs [1],modest enhancement
"siKCNT1: siRNA UGCGAGCCAAGAUGGACAA targeting potassium channel, subfamily T, member 1 (listed as RNA, chemistry not given here)",intensity of alizarin red staining,hMSCs [1],dramatically enhanced
Nc1ncnc2c1ncn2[C@@H]1O[C@H](COP(=O)(O)OP(=O)(O)OP(=O)(O)O)[C@@H](O)[C@H]1O [ATP],number of cells undergoing adipogenic differentiation,hMSCs [2]; ATP treatment of OS-treated hMSCs,slightly increases
same,siP2RY11 and siSLC12a2 induced osteogenesis in combination with OS,"hMSCs [3]; OS and ATP added on third day after siRNA transfection, continued for a week, ALP staining",dosage-dependent inhibitory effect
same,osteogenic differentiation of hMSCs combined with OS treatment,hMSCs [3],inhibited the OS-induced osteogenesis of hMSCs
"siTBX3: siRNA UGCCAAAGAGGAUGUACAU targeting T-box 3 (ulnar mammary syndrome) (listed as RNA, further chemistry not given here)",intensity of alizarin red staining,hMSCs [1],no significant effect
Oc1ccc(-c2nc(-c3ccncc3)c(-c3ccc(F)cc3)[nH]2)cc1 [SB202190],osteogenic differentiation of hMSCs combined with OS treatment,hMSCs [3],inhibited the osteogenic inducing effect of OS
"siGBDR1: siRNA CCCGAAAACAUUGCUAGCA targeting putative glialblastoma cell differentiation-related (listed as RNA, chemistry not given here)",intensity of alizarin red staining,hMSCs [1],dramatically enhanced
"CCCC(=O)Nc1ncnc2c1ncn2[C@@H]1O[C@@H]2COP(=O)(O)O[C@H]2[C@H]1OC(=O)CCC [DB-cAMP, N6,2′-dibutyryl-cAMP]",differentiation of hMSCs into mature adipocytes,hMSCs [2],sufficient to differentiate hMSCs into mature adipocytes
same,"adipogenic differentiation of hMSCs, cAMP-raising compounds",hMSCs [2],promoted hMSCs to undergo adipogenic differentiation
COc1cccc(-c2cc(=O)c3ccccc3o2)c1N [PD98059],osteogenic differentiation of hMSCs combined with OS treatment,hMSCs [3],inhibited the osteogenic inducing effect of OS
